Experimental data reported in patent US8778906B2, “Modulation of line-1 reverse transcriptase” (ALT Solutions, Inc., priority 2003, dated 2014).

How the values were obtained:
U-2 OS cells = assay: AZT treatment of ALT cells, flow cytometry for telomere length (PNA probe) and cell cycle (PI); assay type: cell-based, human
Procedure: (§1) Telomere length in AZT treated and untreated cell lines was measured by flow cytometry with a telomere-specific peptide nucleic acid (PNA) probe^22,23. To determine cell cycle distribution, cells were stained with propidium iodide (PI)^22. […] AZT at the chosen concentration had no effect on telomere length or cell cycle distribution in the HeLa cells (not shown).
Rate of DNA synthesis was determined by incorporation of 5-bromodeoxyuridine (BdU)^24.
(§2) Cell lines: All cell lines used in this study were obtained from American Type Culture Collection (Rockville, Md.). The cells origins included osteosarcoma (Saos-2 and U-2 OS), liver ([…]) and uterine cervix (HeLa). Cells were cultured following ATCC recommendation. For treatment of the cells with AZT, the media was supplemented with 0.2 μM of 3′-azido-2′,3′-dideoxythymidine (Sigma)^28.
(§3) Telomere length measurement by flow cytometry: Cell were stained with telomere specific FITC conjugated (C3TA2)3 PNA (Applied Biosystems) probe and contrastained with 0.06 μg/ml PI as described^21.

Saos-2 cells = assay: as above; assay type: cell-based, human; settings: Saos-2, 0.2 μM AZT, 14 days
Procedure: as §1, §2, §3

[1] = system: WM1175 (malignant melanoma) or HUT292DM (lung cancer) cells; assay: Telomerase-positive xenograft tumors in immunodeficient mice treated with AZT; assay type: in vivo; settings: AZT at the dose tested (total daily dose 10 mg/kg)
Procedure: After induction of tumors, mice in the experimental groups may be treated with AZT. Mice may be injected i.p. twice a day with solution of AZT in PBS with a total daily dose of 10 mg/kg. Mice in control group may be injected with PBS. Alternatively, AZT at the same daily dose may be given in drinking water. […] As a separate set of controls, telomerase-positive tumors in nude mouse may be induced by injecting the immunodeficient mice with WM1175 (malignant melanoma) or HUT292DM (lung cancer) cells instead of the transformed IIICF/c fibroblast cells.

Cc1cn([C@H]2C[C@H](N=[N+]=[N-])[C@@H](CO)O2)c(=O)[nH]c1=O [AZT, 3′-azido-2′,3′-dideoxythymidine]
DNA content (PI staining) (U-2 OS cells; AZT treated cells at later stages of treatment, compared to untreated cells): higher DNA content
time of AZT treatment after which changes in cell cycle distribution, DNA synthesis and telomere length could be detected (U-2 OS cells; U-2 OS, 0.2 μM AZT): 10 days
apoptosis (U-2 OS cells; U-2 OS, 0.2 μM AZT, 14 days): massive apoptosis
telomere length (U-2 OS cells; U-2 OS, 0.2 μM AZT, 14 days): telomere shortening
cell cycle distribution (U-2 OS cells; U-2 OS, 0.2 μM AZT, 14 days, PI staining): G2 arrest
apoptosis (Saos-2 cells): massive apoptosis
telomere length (Saos-2 cells): telomere shortening
cell cycle distribution (Saos-2 cells; PI staining): G2 arrest
inhibition of telomerase-positive tumors [1]: cannot be inhibited
